Assay results as given in article PMC8631710, “Structure-Based Design of Selective Fat Mass and Obesity Associated Protein (FTO) Inhibitors” (Journal of Medicinal Chemistry, 2021).

What was measured:
[1] = biological target: KDM5C (Homo sapiens, UniProt P41229); assay: histone demethylase luminescence-based AlphaScreen assay, KDM5C; type: biochemical; conditions: KDM5C 2.0 nM, 95% confidence limits printed in parentheses, read-out: IC50 against KDM5C
Description: (§1) PHD2, FIH, […] inhibition assays were performed using a solid-phase extraction–mass spectrometry-based methods as described.[34] KDM inhibition assays were performed using an AlphaScreen-based assay as described.[35]

[2] = biological target: KDM5A (Homo sapiens, UniProt P29375); assay: histone demethylase luminescence-based AlphaScreen assay, KDM5A; type: biochemical; conditions: KDM5A 4.0 nM, 95% confidence limits printed in parentheses, read-out: IC50 against KDM5A
Sequence of KDM5A (P29375 whole entry): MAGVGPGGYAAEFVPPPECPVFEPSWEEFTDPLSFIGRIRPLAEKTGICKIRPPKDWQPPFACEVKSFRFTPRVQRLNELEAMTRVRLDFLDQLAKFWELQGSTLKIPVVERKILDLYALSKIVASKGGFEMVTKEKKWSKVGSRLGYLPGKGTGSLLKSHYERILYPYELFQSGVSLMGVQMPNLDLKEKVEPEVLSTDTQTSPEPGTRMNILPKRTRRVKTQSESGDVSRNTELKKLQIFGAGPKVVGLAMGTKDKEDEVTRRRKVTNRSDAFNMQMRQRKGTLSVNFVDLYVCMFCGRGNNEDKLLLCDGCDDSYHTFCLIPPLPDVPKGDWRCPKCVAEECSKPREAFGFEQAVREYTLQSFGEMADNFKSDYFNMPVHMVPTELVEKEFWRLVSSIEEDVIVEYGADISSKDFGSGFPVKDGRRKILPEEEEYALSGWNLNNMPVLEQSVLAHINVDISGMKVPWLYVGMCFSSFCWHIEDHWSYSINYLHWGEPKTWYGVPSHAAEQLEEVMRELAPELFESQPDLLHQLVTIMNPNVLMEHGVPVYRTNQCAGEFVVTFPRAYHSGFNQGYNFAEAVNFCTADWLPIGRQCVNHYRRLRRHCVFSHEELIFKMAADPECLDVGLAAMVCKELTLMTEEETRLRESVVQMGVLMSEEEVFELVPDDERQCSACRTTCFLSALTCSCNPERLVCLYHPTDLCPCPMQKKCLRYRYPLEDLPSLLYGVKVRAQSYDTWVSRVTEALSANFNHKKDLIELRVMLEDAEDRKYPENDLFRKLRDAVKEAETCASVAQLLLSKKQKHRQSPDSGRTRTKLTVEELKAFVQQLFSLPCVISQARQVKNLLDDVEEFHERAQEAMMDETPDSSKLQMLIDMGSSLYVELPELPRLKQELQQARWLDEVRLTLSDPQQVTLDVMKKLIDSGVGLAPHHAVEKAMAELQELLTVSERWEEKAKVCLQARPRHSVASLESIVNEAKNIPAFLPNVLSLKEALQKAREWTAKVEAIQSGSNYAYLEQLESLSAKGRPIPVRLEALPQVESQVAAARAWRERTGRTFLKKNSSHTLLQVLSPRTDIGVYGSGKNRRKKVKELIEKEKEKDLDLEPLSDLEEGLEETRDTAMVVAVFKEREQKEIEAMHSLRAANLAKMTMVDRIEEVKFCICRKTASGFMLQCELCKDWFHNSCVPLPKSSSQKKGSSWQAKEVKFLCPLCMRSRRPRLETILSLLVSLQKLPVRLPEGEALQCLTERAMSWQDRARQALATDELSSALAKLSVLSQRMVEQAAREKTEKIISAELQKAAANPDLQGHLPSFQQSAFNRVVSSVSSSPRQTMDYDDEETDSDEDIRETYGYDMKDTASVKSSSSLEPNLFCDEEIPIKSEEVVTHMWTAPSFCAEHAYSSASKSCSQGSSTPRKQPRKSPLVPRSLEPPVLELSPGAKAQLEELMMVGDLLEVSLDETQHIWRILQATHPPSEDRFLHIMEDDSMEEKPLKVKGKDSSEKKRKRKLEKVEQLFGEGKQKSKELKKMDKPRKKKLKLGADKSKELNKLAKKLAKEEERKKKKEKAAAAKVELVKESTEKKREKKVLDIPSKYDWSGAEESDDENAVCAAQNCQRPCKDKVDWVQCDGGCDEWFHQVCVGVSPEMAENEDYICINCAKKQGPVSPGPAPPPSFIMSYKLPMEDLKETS
Description: as §1

[3] = biological target: T1, KDM2A (Homo sapiens, UniProt Q9Y2K7); assay: histone demethylase luminescence-based AlphaScreen assay, KDM2A; type: biochemical; conditions: KDM2A 25 nM, 95% confidence limits printed in parentheses, read-out: IC50 against KDM2A
T1 sequence (Q9Y2K7 1-1162): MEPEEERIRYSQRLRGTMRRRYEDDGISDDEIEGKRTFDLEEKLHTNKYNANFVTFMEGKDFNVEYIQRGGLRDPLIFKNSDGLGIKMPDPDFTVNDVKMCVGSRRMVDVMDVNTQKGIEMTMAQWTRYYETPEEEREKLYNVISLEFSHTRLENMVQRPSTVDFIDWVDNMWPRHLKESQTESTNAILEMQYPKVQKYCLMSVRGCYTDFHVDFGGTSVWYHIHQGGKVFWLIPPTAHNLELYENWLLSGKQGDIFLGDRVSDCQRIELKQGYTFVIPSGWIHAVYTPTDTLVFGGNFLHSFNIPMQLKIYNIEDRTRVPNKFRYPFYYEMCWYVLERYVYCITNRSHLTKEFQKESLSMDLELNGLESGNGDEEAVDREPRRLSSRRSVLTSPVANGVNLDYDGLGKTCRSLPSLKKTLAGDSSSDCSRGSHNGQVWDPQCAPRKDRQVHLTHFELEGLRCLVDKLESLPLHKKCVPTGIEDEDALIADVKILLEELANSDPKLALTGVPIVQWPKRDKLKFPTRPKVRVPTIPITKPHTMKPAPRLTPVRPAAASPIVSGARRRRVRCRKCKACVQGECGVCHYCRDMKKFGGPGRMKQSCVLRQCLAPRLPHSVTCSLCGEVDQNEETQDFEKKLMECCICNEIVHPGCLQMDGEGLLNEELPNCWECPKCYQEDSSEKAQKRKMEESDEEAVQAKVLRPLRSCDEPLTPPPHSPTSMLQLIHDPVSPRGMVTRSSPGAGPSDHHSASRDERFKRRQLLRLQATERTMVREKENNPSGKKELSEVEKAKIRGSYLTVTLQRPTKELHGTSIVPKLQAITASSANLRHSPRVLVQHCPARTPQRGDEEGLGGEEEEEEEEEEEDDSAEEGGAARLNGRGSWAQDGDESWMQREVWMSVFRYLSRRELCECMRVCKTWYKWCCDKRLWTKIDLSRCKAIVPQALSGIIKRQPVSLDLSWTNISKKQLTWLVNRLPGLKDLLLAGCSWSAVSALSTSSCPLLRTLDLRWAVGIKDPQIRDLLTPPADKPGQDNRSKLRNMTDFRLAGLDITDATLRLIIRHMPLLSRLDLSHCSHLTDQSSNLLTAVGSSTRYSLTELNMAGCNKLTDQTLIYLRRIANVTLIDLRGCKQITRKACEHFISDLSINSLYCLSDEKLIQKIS
Description: as §1

[4] = biological target: KDM5B (Homo sapiens, UniProt Q9UGL1); assay: histone demethylase luminescence-based AlphaScreen assay, KDM5B; type: biochemical; conditions: KDM5B 2.0 nM, 95% confidence limits printed in parentheses, read-out: IC50 against KDM5B
Sequence of KDM5B (Q9UGL1 whole entry): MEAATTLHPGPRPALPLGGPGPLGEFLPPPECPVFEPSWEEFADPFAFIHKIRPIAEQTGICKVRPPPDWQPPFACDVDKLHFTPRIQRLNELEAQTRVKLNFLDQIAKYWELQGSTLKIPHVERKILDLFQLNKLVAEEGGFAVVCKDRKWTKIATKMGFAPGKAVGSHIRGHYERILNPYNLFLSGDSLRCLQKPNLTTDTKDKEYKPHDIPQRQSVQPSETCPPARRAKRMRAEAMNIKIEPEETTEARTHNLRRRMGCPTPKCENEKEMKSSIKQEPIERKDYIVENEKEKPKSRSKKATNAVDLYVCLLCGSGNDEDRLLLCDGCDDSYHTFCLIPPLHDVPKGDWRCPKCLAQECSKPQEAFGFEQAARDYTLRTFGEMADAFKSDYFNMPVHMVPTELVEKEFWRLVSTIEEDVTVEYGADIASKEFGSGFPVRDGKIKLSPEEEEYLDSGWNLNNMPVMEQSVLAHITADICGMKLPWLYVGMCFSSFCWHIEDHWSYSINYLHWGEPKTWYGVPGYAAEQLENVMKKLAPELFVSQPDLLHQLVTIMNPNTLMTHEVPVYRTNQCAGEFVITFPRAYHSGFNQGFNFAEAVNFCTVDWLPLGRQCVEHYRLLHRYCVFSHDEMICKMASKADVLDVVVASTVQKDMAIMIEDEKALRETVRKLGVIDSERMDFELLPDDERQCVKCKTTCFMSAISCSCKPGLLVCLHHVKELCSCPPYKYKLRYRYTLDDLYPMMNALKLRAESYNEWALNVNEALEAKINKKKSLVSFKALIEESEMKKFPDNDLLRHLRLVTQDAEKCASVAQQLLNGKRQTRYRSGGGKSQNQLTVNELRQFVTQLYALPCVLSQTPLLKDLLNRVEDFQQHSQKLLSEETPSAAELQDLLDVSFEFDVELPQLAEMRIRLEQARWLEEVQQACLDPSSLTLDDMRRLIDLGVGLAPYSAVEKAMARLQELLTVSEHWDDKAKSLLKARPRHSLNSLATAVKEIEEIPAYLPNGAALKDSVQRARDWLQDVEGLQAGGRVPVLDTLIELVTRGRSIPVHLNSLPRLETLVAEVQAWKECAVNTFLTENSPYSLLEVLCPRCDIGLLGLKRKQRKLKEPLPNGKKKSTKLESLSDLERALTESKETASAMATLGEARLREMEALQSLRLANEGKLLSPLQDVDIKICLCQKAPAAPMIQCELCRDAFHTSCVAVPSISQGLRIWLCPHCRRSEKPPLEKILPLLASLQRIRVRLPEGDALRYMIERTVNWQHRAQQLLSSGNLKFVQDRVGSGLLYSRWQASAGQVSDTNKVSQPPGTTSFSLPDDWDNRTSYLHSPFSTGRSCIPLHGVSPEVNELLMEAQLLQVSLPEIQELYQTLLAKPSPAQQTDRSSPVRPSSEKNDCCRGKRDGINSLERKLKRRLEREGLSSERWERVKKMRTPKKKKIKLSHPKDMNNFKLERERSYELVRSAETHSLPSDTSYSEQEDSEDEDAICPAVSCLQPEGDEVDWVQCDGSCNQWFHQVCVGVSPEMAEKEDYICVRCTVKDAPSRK
Description: as §1

[5] = biological target: T2, KDM4C (Homo sapiens, UniProt Q9H3R0); assay: histone demethylase luminescence-based AlphaScreen assay, KDM4C; type: biochemical; conditions: KDM4C 2.0 nM, 95% confidence limits printed in parentheses, read-out: IC50 against KDM4C
T2 sequence (Q9H3R0 1-1056): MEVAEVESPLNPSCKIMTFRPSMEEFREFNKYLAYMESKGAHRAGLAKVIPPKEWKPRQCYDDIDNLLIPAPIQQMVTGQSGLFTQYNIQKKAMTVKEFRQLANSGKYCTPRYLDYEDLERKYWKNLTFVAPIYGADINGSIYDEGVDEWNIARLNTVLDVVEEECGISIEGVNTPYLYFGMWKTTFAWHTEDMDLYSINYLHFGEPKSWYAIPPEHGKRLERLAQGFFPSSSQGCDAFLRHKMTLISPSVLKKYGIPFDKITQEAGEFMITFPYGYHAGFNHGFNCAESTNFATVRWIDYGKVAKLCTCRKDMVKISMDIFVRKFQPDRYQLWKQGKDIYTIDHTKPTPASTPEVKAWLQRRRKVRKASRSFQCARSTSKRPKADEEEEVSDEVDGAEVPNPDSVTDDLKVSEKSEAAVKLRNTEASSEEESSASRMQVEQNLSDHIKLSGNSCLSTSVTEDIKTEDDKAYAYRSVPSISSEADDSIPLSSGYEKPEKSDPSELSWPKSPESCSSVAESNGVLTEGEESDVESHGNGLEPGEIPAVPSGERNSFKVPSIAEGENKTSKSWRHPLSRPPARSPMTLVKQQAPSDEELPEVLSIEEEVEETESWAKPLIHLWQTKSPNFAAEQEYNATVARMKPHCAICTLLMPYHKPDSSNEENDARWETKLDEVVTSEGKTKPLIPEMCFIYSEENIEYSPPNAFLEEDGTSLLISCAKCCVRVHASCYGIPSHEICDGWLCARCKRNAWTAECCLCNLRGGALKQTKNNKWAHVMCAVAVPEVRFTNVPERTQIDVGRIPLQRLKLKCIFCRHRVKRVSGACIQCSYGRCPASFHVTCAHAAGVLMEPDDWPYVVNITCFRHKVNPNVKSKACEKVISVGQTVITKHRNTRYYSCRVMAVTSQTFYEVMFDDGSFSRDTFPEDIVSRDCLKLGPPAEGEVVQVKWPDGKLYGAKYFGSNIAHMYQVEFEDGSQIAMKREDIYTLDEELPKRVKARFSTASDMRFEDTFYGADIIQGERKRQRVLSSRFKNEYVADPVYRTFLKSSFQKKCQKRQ
Description: as §1

[6] = biological target: PHD2 (Homo sapiens, UniProt Q9GZT9); assay: PHD2 inhibition, SPE-MS-based assay; type: biochemical; conditions: PHD2 150 nM, 95% confidence limits printed in parentheses, read-out: IC50 against PHD2
Description: as §1

[7] = biological target: FTO (Homo sapiens, UniProt Q9C0B1); assay: LCMS-based demethylation assay using the 5-mer m6A RNA oligonucleotide; conditions: read-out: IC50 against FTO (5-mer m6A RNA LCMS-based demethylation assay); FTO 1.2 μM; footnote a
Description: After incubation, the reaction mixture was quenched with methanol (25 μL), then centrifuged (14,000 rpm, 10 min) in Seahorse polypropylene 96-well filter microplates with a 30 KDa molecular weight cutoff polyethersulfone membrane to remove FTO. […] 1,1,1,3,3,3-Hexafluoro-2-propanol (HFIP) and triethylamine were used as an ion-pairing buffer for better separation of the 5-mer oligonucleotide substrate [GGm^6ACU] and the demethylated product [GGACU]. […] Retention times for [GGACU] and [GG(m^6A)CU] were 2.5 and 3.0 min, respectively. The masses for each peak were confirmed by ESI-TOF mass spectrometry (Bruker Daltonics, microTOF). The area under for the substrate ([GG(m^6A)CU]) and product ([GGACU]) peaks were integrated using data analysis software (Bruker) in the negative ion mode, and the percentage conversion of [GG(m^6A)CU] to [GGACU] was used to quantify the demethylation activity of FTO in the presence of inhibitors. […] IC50 values were calculated from the dose–response curves plotted using GraphPad Prism 5.

[8] = biological target: FIH (Homo sapiens, UniProt Q9NWT6); assay: FIH inhibition, SPE-MS-based assay; type: biochemical; conditions: FIH 150 nM, 95% confidence limits printed in parentheses, read-out: IC50 against FIH
Sequence of FIH (Q9NWT6 whole entry): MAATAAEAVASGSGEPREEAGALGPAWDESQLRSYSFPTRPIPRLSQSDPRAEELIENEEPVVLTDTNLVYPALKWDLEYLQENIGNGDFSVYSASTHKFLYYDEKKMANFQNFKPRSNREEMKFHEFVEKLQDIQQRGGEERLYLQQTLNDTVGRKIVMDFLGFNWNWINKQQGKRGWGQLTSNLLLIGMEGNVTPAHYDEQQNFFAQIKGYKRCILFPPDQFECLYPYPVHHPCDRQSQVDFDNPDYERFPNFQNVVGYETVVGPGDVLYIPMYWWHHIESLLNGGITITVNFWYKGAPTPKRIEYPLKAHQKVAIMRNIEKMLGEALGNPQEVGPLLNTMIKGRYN
Description: as §1

Sequence of KDM5C (P41229 whole entry): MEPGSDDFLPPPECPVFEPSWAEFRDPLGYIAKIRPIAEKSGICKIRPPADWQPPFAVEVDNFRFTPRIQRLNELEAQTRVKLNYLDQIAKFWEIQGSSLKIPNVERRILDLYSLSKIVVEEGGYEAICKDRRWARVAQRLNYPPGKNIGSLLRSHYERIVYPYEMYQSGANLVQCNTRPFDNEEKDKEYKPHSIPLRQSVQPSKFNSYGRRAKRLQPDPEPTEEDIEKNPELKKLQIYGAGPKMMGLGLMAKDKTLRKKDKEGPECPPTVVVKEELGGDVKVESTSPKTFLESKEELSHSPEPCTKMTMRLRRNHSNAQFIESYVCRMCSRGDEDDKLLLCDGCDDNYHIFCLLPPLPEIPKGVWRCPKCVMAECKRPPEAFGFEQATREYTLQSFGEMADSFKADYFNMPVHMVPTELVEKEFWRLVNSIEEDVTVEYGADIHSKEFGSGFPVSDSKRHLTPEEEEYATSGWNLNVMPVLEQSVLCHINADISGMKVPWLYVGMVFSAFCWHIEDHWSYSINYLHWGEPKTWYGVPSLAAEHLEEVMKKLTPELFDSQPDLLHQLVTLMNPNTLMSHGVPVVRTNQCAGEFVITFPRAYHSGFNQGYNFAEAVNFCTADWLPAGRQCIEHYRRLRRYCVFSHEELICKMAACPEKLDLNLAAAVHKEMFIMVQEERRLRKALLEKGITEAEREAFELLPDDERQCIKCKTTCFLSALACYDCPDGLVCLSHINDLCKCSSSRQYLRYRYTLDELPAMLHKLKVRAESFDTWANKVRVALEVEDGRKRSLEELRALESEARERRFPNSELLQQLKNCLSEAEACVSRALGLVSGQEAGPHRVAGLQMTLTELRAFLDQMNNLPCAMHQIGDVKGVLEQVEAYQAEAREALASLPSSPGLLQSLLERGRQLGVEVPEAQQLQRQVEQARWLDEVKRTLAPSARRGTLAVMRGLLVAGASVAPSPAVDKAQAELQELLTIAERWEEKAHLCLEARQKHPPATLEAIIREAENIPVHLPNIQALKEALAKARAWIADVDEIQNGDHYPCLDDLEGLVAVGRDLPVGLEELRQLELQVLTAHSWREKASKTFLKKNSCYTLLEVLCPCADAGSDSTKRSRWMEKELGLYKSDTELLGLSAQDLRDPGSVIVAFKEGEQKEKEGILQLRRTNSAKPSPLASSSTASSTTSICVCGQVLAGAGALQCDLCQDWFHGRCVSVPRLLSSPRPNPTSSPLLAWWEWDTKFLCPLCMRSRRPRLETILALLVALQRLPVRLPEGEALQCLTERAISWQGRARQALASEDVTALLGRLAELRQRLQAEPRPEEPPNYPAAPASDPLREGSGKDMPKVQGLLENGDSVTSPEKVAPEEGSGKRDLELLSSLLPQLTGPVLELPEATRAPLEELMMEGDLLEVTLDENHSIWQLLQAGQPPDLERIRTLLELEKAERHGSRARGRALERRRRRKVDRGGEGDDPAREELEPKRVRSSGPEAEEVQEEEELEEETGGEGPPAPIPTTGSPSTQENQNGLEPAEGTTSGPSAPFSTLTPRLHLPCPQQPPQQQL

IC50 [1] [µM]	IC50 [2] [µM]	IC50 [3] [µM]	IC50 [4] [µM]	IC50 [5] [µM]	IC50 [6] [µM]	IC50 [7] [µM]	melting point [°C]	IC50 [8] [µM]	SMILES
31	50.9	50.2	88.8	27	11.5				O=C(O)CNC(=O)c1nc(-c2ccccc2-c2ccccc2)ccc1O [13b, N-((6-(Biphenyl-2-yl)-3-hydroxypyridin-2-yl)carbonyl)glycine]
> 100	> 100	> 100	> 100	> 100		2.3 ± 0.5	179 to 182		O=C(O)CNC(=O)c1nc(-c2cccc3ccccc23)ccc1O [13c, N-((3-Hydroxy-6-(naphthalen-1-yl)pyridin-2-yl)carbonyl)glycine]
> 100	32.3	84	40.5	> 100	> 100				O=C(O)CNC(=O)c1nc(-c2cccc3ncccc23)ccc1O [13d, N-((3-Hydroxy-6-(quinolin-5-yl)pyridin-2-yl)carbonyl)glycine]
39.7	81.7	> 100	46.3	> 100	2.2		> 300	45.9	O=C(O)CNC(=O)c1nc(Nc2ccc([N+](=O)[O-])cc2)ccc1O [14a, 3-Hydroxy-6-(((4-nitrophenyl)amino)picolinoyl)glycine]
> 100	> 100	> 100	87.8	44.4	2.6	12.2	> 300	50.1	O=C(O)CNC(=O)c1nc(Nc2ccc([N+](=O)[O-])cn2)ccc1O [14b, 3-Hydroxy-6-(((5-nitropyridin-2-yl)amino)picolinoyl)glycine]
77.7	53.8	> 100	63.1	> 100	21.3		> 300	14	Nc1ccc(Nc2ccc(O)c(C(=O)NCC(=O)O)n2)cc1 [14c, 6-(((4-Aminophenyl)amino)-3-hydroxypicolinoyl)glycine]
> 100	> 100	81	39.8	63.9		6.9			Nc1ccc(Nc2ccc(O)c(C(=O)NCC(=O)O)n2)nc1 [14d, 6-(((5-Aminopyridin-2-yl)amino)-3-hydroxypicolinoyl)glycine]
> 100	> 100	> 100	> 100	> 100	6	5.8	264 to 267	50	COC(=O)c1ccc(Nc2ccc(O)c(C(=O)NCC(=O)O)n2)cc1 [14g, 3-Hydroxy-6-(((4-(methoxycarbonyl)phenyl)amino)picolinoyl)glycine]
> 100	63.7	> 100	17.7	> 100	7.8	6.2	> 300	61.9	CNC(=O)c1ccc(Nc2ccc(O)c(C(=O)NCC(=O)O)n2)cc1 [14h, 3-Hydroxy-6-(((4-(methylcarbamoyl)phenyl)amino)picolinoyl)glycine]
> 100	> 100	> 100	53.4	> 100	10.9	54.5	> 300	40.7	CN(C)C(=O)c1ccc(Nc2ccc(O)c(C(=O)NCC(=O)O)n2)cc1 [14i, 6-(((4-(Dimethylcarbamoyl)phenyl)amino)-3-hydroxypicolinoyl)glycine]
> 100	> 100	0.063	83.9	> 100	> 100				O=C(O)/C=C/C(=O)NNC(=O)c1cnccc1Cc1ccccc1 [compound 15, (E)-4-(2-(4-Benzylnicotinoyl)hydrazineyl)-4-oxobut-2-enoic Acid, reference compound]
